Experiments:
[1] = target: T1, ALR2 enzyme (Homo sapiens, UniProt P15121); test: ALR2 activity assay kit (ab273276), inhibition; type: biochemical;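 as to relative ALR2 inhibition: inhibition calculated from the rate of NADPH cofactor consumption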
T1 construct: purchased ab273276
Protocol: The obtained dose–response curve had concentrations of 10 μM, 5 μM, 500 nM, 50 nM, and 5 nM.

[2] = ABTS assay
Protocol: (§1) All synthesized compounds were evaluated at 30 μM, 50 μM, 70 μM, 90 μM, and 110 μM under two of the most widely used methods in research to directly measure the antioxidant and anti-radical intrinsic capacity, FRAP, and ABTS assay, which were validated by a dose–response curve of 5-ASA as a reference. In the same way, these tests were carried out in triplicate using an assay kit (from Pharmaceutical and Biotechnological Innovation-Services) according to the manufacturer’s instructions.

[3] = FRAP assay
Protocol: as §1

[4] = test system: male Wistar rat; test: Acute oral toxicity, Up and Down procedure (OECD 425); type: in vivo; design: Heart weight / IWA (initial weight of animals) / FWA (final weight of animals) / Spleen weight / Liver weight / Intestine weight / Stomach weight / Kidney weight: unit not given here; details: for FWA (final weight of animals): after 14 days; for Heart weight / Intestine weight / Kidney weight / Liver weight / Spleen weight / Stomach weight: necropsy; for toxicity category (OECD): maximum dose 1250 mg/Kg oral
Protocol: All synthesized compounds (8c, 8d, and 12d as a racemic mixture) were suspended in 2% Tween 80 in water and administered orally by an esophageal cannula following the “Up and Down” methodology. Nevertheless, compounds could not be solubilized in the desired volume to complete the highest dose (1750 mg/Kg), so the toxicity test was performed with a maximum dose of 1250 mg/Kg. Even so, the values obtained indicate that these compounds are classified within toxicity category 4 according to the guidelines established by the Organization for Economic Co-operation and Development (OECD).
The “Up and Down” procedure of OECD Guideline 425 was used to estimate the LD50 value of synthesized compounds. Briefly, a dose of 175 mg/Kg was administered to a male Wistar rat, which was monitored continuously for 48 h. As the animal survived, a second animal received a dose of 550 mg/Kg, and, as it survived, a third animal received an increasing dose of 1750 mg/Kg. Finally, two other rats were administered the same dose. All animals were kept under observation for 14 days, and 24 h later, they were taken to the humane endpoint for macroscopic examination of organs and tissues. Finally, the LD50 value of the compounds was estimated to determine their degree of toxicity and classified based on the GHS of Classification and Labeling of Chemicals.

[5] = target: T1, ALR2 enzyme; test: ALR2 activity assay kit (ab273276), inhibition; type: biochemical; details: Inhibitor concentration
[6] = Inhibitor concentration 5000 nm
[7] = Inhibitor concentration 10000 nm

Structure (SMILES): COC(=O)[C@@H](N/C(=N\c1nc2ccccc2s1)SC)c1ccccc1 [8c, Methyl (S,E)-2-(((benzo[d]thiazol-2-ylimino)(methylthio)methyl)amino)-2-phenylacetate]
- concentrations at which ALR2 was inhibited [1]: below 10 µM
- concentration dependence of ALR2 inhibition (IC50 not calculable) ([1]; 10 μM to 5 nM): did not show a concentration-dependent response
- relative ALR2 inhibition ([1]; Inhibitor concentration 5 nm): 82.945%
- relative ALR2 inhibition ([1]; Inhibitor concentration 50 nm): 85.158%
- relative ALR2 inhibition ([1]; Inhibitor concentration 500 nm): 68.371%
- relative ALR2 inhibition [1, 6]: 53.000%
- Percentage reduction of radical cation ABTS ([2]; 30 µM): -3.5%
- Percentage reduction of radical cation ABTS ([2]; 50 µM): -3.9%
- Percentage reduction of radical cation ABTS ([2]; 70 µM): -3.8%
- Percentage reduction of radical cation ABTS ([2]; 90 µM): -2.9%
- Percentage reduction of radical cation ABTS ([2]; 110 µM): -2.8%
- Percentage reduction of ferric ion to ferrous ion (FRAP) ([3]; 30 µM): 13.2%
- Percentage reduction of ferric ion to ferrous ion (FRAP) ([3]; 50 µM): 14.4%
- Percentage reduction of ferric ion to ferrous ion (FRAP) ([3]; 70 µM): 15.5%
- Percentage reduction of ferric ion to ferrous ion (FRAP) ([3]; 90 µM): 19.6%
- Percentage reduction of ferric ion to ferrous ion (FRAP) ([3]; 110 µM): 20.2%
- FWA (final weight of animals) ([4]; 1250 mg/Kg oral, mean ± SEM): 204.37 ± 1.47
- Heart weight ([4]; 1250 mg/Kg oral, mean ± SEM): 1.07 ± 0.17
- Intestine weight ([4]; 1250 mg/Kg oral, mean ± SEM): 30.20 ± 1.50
- Kidney weight ([4]; 1250 mg/Kg oral, mean ± SEM): 2.57 ± 0.27
- Liver weight ([4]; 1250 mg/Kg oral, mean ± SEM): 18.87 ± 1.47
- Spleen weight ([4]; 1250 mg/Kg oral, mean ± SEM): 0.73 ± 0.03
- Stomach weight ([4]; 1250 mg/Kg oral, mean ± SEM): 1.57 ± 0.07
- toxicity category (OECD) [4]: 4
- relative ALR2 inhibition [5]: 90.000%

Structure (SMILES): CC(/C=C1\SC(=S)N(CC(=O)O)C1=O)=C\c1ccccc1 [Epa, epalrestat, reference compound]
- relative ALR2 inhibition ([1]; Inhibitor concentration 5 nm): 5.000%
- relative ALR2 inhibition ([1]; Inhibitor concentration 50 nm): 5.288%
- relative ALR2 inhibition ([1]; Inhibitor concentration 500 nm): 12.513%
- relative ALR2 inhibition [1, 6]: 58.372%
- relative ALR2 inhibition [1, 7]: 100.000%
- relative ALR2 inhibition [5]: 3.000%

Structure (SMILES): CNC(=O)C(Cc1ccccc1)N/C(=N\c1nc2ccccc2s1)SC (racemic) [12d, Methyl (RS, E)-N’-(benzo[d]thiazol-2-yl)-N-(1-(methylamino)-1-oxo-3-phenylpropan-2-yl)carbamimidothioate]
- relative ALR2 inhibition ([1]; Inhibitor concentration 5 nm): 29.534%
- relative ALR2 inhibition ([1]; Inhibitor concentration 50 nm): 32.532%
- relative ALR2 inhibition ([1]; Inhibitor concentration 500 nm): 33.993%
- relative ALR2 inhibition [1, 6]: 48.448%
- relative ALR2 inhibition [1, 7]: 86.455%
- Percentage reduction of radical cation ABTS ([2]; 30 µM): -3.4%
- Percentage reduction of radical cation ABTS ([2]; 50 µM): -3.7%
- Percentage reduction of radical cation ABTS ([2]; 70 µM): -2.3%
- Percentage reduction of radical cation ABTS ([2]; 90 µM): -3.1%
- Percentage reduction of radical cation ABTS ([2]; 110 µM): -1.9%
- Percentage reduction of ferric ion to ferrous ion (FRAP) ([3]; 30 µM): 0.19%
- Percentage reduction of ferric ion to ferrous ion (FRAP) ([3]; 50 µM): 0.20%
- Percentage reduction of ferric ion to ferrous ion (FRAP) ([3]; 70 µM): 0.18%
- Percentage reduction of ferric ion to ferrous ion (FRAP) ([3]; 90 µM): 0.20%
- FWA (final weight of animals) ([4]; 1250 mg/Kg oral, mean ± SEM): 309.67 ± 4.67
- IWA (initial weight of animals) ([4]; 1250 mg/Kg oral, mean ± SEM): 208.47 ± 6.47
- Heart weight ([4]; 1250 mg/Kg oral, mean ± SEM): 1.23 ±0.13
- Intestine weight ([4]; 1250 mg/Kg oral, mean ± SEM): 29.10 ± 0.50
- Kidney weight ([4]; 1250 mg/Kg oral, mean ± SEM): 2.87 ± 0.067
- Liver weight ([4]; 1250 mg/Kg oral, mean ± SEM): 19.33 ± 0.03
- Spleen weight ([4]; 1250 mg/Kg oral, mean ± SEM): 0.83 ± 0.03
- Stomach weight ([4]; 1250 mg/Kg oral, mean ± SEM): 1.53 ± 0.07
- toxicity category (OECD) [4]: 4
- relative ALR2 inhibition [5]: 32.814%

From PMC12388506, “Preclinical Evaluation of 2-Aminobenzothiazole Derivatives: In Silico, In Vitro, and Preliminary In Vivo Studies as Diabetic Treatments and Their Complications” (Molecules, 2025)
